Measured values reported in ChEMBL document CHEMBL3596092, “Design, synthesis and biological evaluation of 4-(alkyloxy)-6-methyl-2H-pyran-2-one derivatives as quorum sensing inhibitors” (Bioorg Med Chem Lett, 2015).
Active and inactive are the calls of the source.

Columns and labels:
[1] = biological target: T1, Transcriptional activator protein LasR (Pseudomonas aeruginosa (strain ATCC 15692 / PAO1 / 1C / PRS 101 / LMG12228)) (UniProt P25084); test: Inhibition of LasR in Pseudomonas aeruginosa PA14 assessed as reduction in biofilm formation at 1 to 1000 uM incubated at 37 degC for 24 hrs by crystal violet staining based static biofilm formation assay
T1 sequence (whole entry): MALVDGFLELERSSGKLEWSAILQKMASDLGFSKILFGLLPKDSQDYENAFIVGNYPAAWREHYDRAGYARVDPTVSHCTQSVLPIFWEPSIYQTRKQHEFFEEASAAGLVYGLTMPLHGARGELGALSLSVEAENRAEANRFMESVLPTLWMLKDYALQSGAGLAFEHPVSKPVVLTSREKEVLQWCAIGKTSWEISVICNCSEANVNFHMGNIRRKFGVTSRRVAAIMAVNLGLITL

[2] = system: Pseudomonas aeruginosa; test: Toxicity against Pseudomonas aeruginosa PA14 assessed as effect on house keeping proC gene expression at 10 uM by RT-qPCR method
[3] = biological target: T1, Transcriptional activator protein LasR (Pseudomonas aeruginosa (strain ATCC 15692 / PAO1 / 1C / PRS 101 / LMG12228)); test: Inhibition of LasR in Pseudomonas aeruginosa PA14 assessed as reduction in rhlB gene expression at 10 uM by RT-qPCR method
[4] = biological target: T1, Transcriptional activator protein LasR (Pseudomonas aeruginosa (strain ATCC 15692 / PAO1 / 1C / PRS 101 / LMG12228)); test: Inhibition of LasR in Pseudomonas aeruginosa PA14 assessed as reduction in lasA gene expression at 10 uM by RT-qPCR method
[5] = biological target: T1, Transcriptional activator protein LasR (Pseudomonas aeruginosa (strain ATCC 15692 / PAO1 / 1C / PRS 101 / LMG12228)); test: Inhibition of LasR in Pseudomonas aeruginosa PA14 assessed as reduction in pqsH gene expression at 10 uM by RT-qPCR method
[6] = biological target: T1, Transcriptional activator protein LasR (Pseudomonas aeruginosa (strain ATCC 15692 / PAO1 / 1C / PRS 101 / LMG12228)); test: Inhibition of LasR in Pseudomonas aeruginosa PA14 assessed as reduction in pqsC gene expression at 10 uM by RT-qPCR method
[7] = biological target: T1, Transcriptional activator protein LasR (Pseudomonas aeruginosa (strain ATCC 15692 / PAO1 / 1C / PRS 101 / LMG12228)); test: Inhibition of LasR in Pseudomonas aeruginosa PA14 assessed as reduction in biofilm formation incubated at 37 degC for 24 hrs by crystal violet staining based static biofilm formation assay
[8] = biological target: T1, Transcriptional activator protein LasR (Pseudomonas aeruginosa (strain ATCC 15692 / PAO1 / 1C / PRS 101 / LMG12228)); test: Inhibition of LasR in Pseudomonas aeruginosa PA14 assessed as reduction in biofilm formation at 0.1 to 10 uM incubated at 37 degC for 24 hrs by crystal violet staining based static biofilm formation assay
[9] = biological target: T1, Transcriptional activator protein LasR (Pseudomonas aeruginosa (strain ATCC 15692 / PAO1 / 1C / PRS 101 / LMG12228)); test: Inhibition of LasR in Pseudomonas aeruginosa PA14 assessed as reduction in mvfR gene expression at 10 uM by RT-qPCR method
[10] = biological target: T1, Transcriptional activator protein LasR (Pseudomonas aeruginosa (strain ATCC 15692 / PAO1 / 1C / PRS 101 / LMG12228)); test: Inhibition of LasR in Pseudomonas aeruginosa PA14 assessed as reduction in pqsD gene expression at 10 uM by RT-qPCR method
[11] = biological target: T1, Transcriptional activator protein LasR (Pseudomonas aeruginosa (strain ATCC 15692 / PAO1 / 1C / PRS 101 / LMG12228)); test: Inhibition of LasR in Pseudomonas aeruginosa PA14 assessed as reduction in phzC1 gene expression at 10 uM by RT-qPCR method
[12] = biological target: T1, Transcriptional activator protein LasR (Pseudomonas aeruginosa (strain ATCC 15692 / PAO1 / 1C / PRS 101 / LMG12228)); test: Inhibition of LasR in Pseudomonas aeruginosa PA14 assessed as reduction in rhlR gene expression at 10 uM by RT-qPCR method
[13] = system: Pseudomonas aeruginosa; test: Toxicity against Pseudomonas aeruginosa PA14 assessed as effect on bacterial growth at 1 to 10 uM incubated at 37 degC for 13 hrs
[14] = biological target: T1, Transcriptional activator protein LasR (Pseudomonas aeruginosa (strain ATCC 15692 / PAO1 / 1C / PRS 101 / LMG12228)); test: Inhibition of LasR in Pseudomonas aeruginosa PA14 assessed as reduction in lasR gene expression at 10 uM by RT-qPCR method
[15] = biological target: T1, Transcriptional activator protein LasR (Pseudomonas aeruginosa (strain ATCC 15692 / PAO1 / 1C / PRS 101 / LMG12228)); test: Inhibition of Pseudomonas aeruginosa LasR expressed in Pseudomonas aeruginosa PA14 over-expressing pUCPLasR assessed as reduction in biofilm formation at 0.1 to 100 uM incubated at 37 degC for 24 hrs by crystal violet staining based static biofilm formation assay
[16] = biological target: T1, Transcriptional activator protein LasR (Pseudomonas aeruginosa (strain ATCC 15692 / PAO1 / 1C / PRS 101 / LMG12228)); test: Inhibition of LasR in Pseudomonas aeruginosa PA14 assessed as reduction in lasB gene expression at 10 uM by RT-qPCR method
[17] = biological target: T1, Transcriptional activator protein LasR (Pseudomonas aeruginosa (strain ATCC 15692 / PAO1 / 1C / PRS 101 / LMG12228)); test: Inhibition of LasR in Pseudomonas aeruginosa PA14 assessed as reduction in lasI gene expression at 10 uM by RT-qPCR method
[18] = biological target: T1, Transcriptional activator protein LasR (Pseudomonas aeruginosa (strain ATCC 15692 / PAO1 / 1C / PRS 101 / LMG12228)); test: Inhibition of LasR in Pseudomonas aeruginosa PA14 assessed as reduction in rhlI gene expression at 10 uM by RT-qPCR method
[19] = biological target: T1, Transcriptional activator protein LasR (Pseudomonas aeruginosa (strain ATCC 15692 / PAO1 / 1C / PRS 101 / LMG12228)); test: Inhibition of LasR in Pseudomonas aeruginosa PA14 assessed as reduction in rhlA gene expression at 10 uM by RT-qPCR method
[20] = biological target: T1, Transcriptional activator protein LasR (Pseudomonas aeruginosa (strain ATCC 15692 / PAO1 / 1C / PRS 101 / LMG12228)); test: Inhibition of LasR in Pseudomonas aeruginosa PA14 assessed as reduction in phzE1 gene expression at 10 uM by RT-qPCR method
[21] = biological target: T1, Transcriptional activator protein LasR (Pseudomonas aeruginosa (strain ATCC 15692 / PAO1 / 1C / PRS 101 / LMG12228)); test: Inhibition of LasR in Pseudomonas aeruginosa PA14 assessed as reduction in phnB gene expression at 10 uM by RT-qPCR method

CCCCCCCCCCCCCOc1cc(C)oc(=O)c1
6%: inhibition [1]

CCCCCCCCCCCCCCOc1cc(C)oc(=O)c1
6%: inhibition [1]

CCCCCCCCCCCCOc1cc(C)oc(=O)c1
11%: inhibition [1]
6%: inhibition [8]
Non-toxic: Activity [2] | Activity [13]
active: inhibition [3] | inhibition [4] | inhibition [5] | inhibition [6] | inhibition [7] Dose-dependent effect | inhibition [9] | inhibition [10] | inhibition [11] | inhibition [12] | inhibition [14] | inhibition [15] | inhibition [16] | inhibition [17] | inhibition [18] | inhibition [19] | inhibition [20] | inhibition [21]

O=C1C=C(Br)/C(=C/Br)O1
13%: inhibition [1]
